The values that follow come from ChEMBL document CHEMBL1141370, “Biologically active triterpenoid saponins from Ardisia japonica” (J Nat Prod, 2007).

What all share (assay type): cell-based
Assay [1] deals with HL-60. Nature of the assay: Cytotoxicity against human HL60 cell line by MTT assay.
A short description of assay [2]: Cytotoxicity against human KATO3 cell line by MTT assay. In general terms: Tetrazolium assays rely on reduction of a dye to a coloured formazan, in cell work by metabolically active cells.
The test system of assay [3] is A549. Description: Cytotoxicity against human A549 cell line by MTT assay.

SMILES strings stand for the structures.

For orientation: IC50 means the concentration that inhibits the measured activity by half. A low value points to higher potency. In the case of `C[C@@H]1O[C@@H](O[C@H]2[C@H](O[C@H]3CO[C@@H](O[C@H]4CC[C@]5(C)[C@H]6CC=C7[C@@H]8C[C@@](C)(CO)CC[C@]8(CO)[C@H](O)C[C@@]7(C)[C@]6(C)CC[C@H]5C4(C)C)[C@H](O[C@@H]4O[C@H](CO)[C@@H](O)[C@H](O)[C@H]4O)[C@H]3O)O[C@H](CO)[C@@H](O)[C@@H]2O)[C@H](O)[C@H](O)[C@H]1O` [ARDISIAMAMILLOSEDE C], the IC50 in assay [1], in assay [2] and in assay [3] was greater than 100 µM throughout.
In the case of `CC1(C)CC[C@]23C(=O)O[C@@]4(CC[C@@H]5[C@@]6(C)CC[C@H](O[C@@H]7OC[C@H](O[C@@H]8O[C@H](CO)[C@@H](O)[C@H](O[C@@H]9O[C@H](CO)[C@@H](O[C@@H]%10O[C@H](CO)[C@@H](O)[C@H](O)[C@H]%10O)[C@H](O[C@@H]%10O[C@H](CO)[C@@H](O)[C@H](O)[C@H]%10O)[C@H]9O)[C@H]8O[C@@H]8OC[C@@H](O)[C@H](O)[C@H]8O)[C@H](O)[C@H]7O[C@@H]7O[C@H](CO)[C@@H](O)[C@H](O)[C@H]7O)C(C)(C)[C@@H]6CC[C@@]5(C)[C@]4(C)C[C@H]2O)[C@@H]3C1` [ARDISIANOSIDE H], the figures for the IC50 in assay [1], in assay [2] and in assay [3] were 28.4 µM, 8.3 µM and 33.4 µM, respectively.
